Marks after values point to notes of the source that are not given here.
Experiment: Particle size distribution (Sympatec HELOS, dry dispersion)
Type: physicochemical
Description: Particle Size Distribution:
• Sympatec HELOS (H0445), dry dispersion system (RODOS), pressure 2 bar Content Uniformity Test: • Content Determination according to USP/Ph. Eur. for individual capsules after elution through HPLC with external calibration • Column: LiChrosphere 5μ RP-18 encapped, 150×3 mm • Eluent: acetonitrile/water=45/55 • Flow: 1 ml/min • Detection UV (272 nm) Active Ingredient Release: • Active ingredient release measured in 1000 mL water with 0.3% sodium dodecyl sulfate, 100 rpm • Content Determination y HPLC with external calibration • Column: LiChrosphere 5μ RP-18 encapped, 150×3 mm • Eluent: acetonitrile/water=45/55 • Flow: 1 ml/min • Detection UV (272 nm)

[1] = Example 1 microcrystals, ethyl acetate, three cycles 55/20° C., air dried
[2] = after drying on filter (ethyl acetate suspension)
[3] = after spray-drying (ethanol/water suspension)
[4] = suspension in ethanol/water (90/10) with 10% by weight microcrystalline J956, before drying
[5] = suspension in ethyl acetate with 14% by weight microcrystalline J956, before drying

## CCNC(=O)ON=Cc1ccc(C2CC3(C)C(CCC3(COC)OC)C3CCC4=CC(=O)CCC4=C23)cc1 (stereo not drawn) [J956, 11β-{4-[(ethylaminocarbonyl)oximinomethyl]phenyl}-17β-methoxy-17α-methoxymethyl-estra-4,9-dien-3-one]
[1]
  Particle size X10: 2.62 μm
  Particle size X50: 10.4 μm
[2]
  Particle size X10: 2.7 μm
  Particle size X50: 10.61 μm
  Particle size X90: 24 μm
[3]
  Particle size X10: 2.25 μm
  Particle size X50: 8.03 μm
  Particle size X90: 17 μm
  Particle size X100: 43 μm
[4]
  Particle size X10: 2.11 μm
  Particle size X50: 8.6 μm
  Particle size X90: 19 μm
  Particle size X100: 51 μm
[5]
  Particle size X10: 2.62*** μm
  Particle size X50: 10.4 μm
  Particle size X90: 24 μm

Reference: patent publication US7148212B2, “Process for production of steroid crystals, steroid crystals obtained thereby and pharmaceutical preparations containing them” (Schering AG, priority 2002, dated 2006)
